The results in this text go back to article PMC5823565, “Targeting ovarian cancer and endothelium with an allosteric PTP4A3 phosphatase inhibitor” (Oncotarget, 2017).

The structures appear in SMILES notation. Entries after “also recorded” stand apart in the source; their conditions may differ.

In one assay the test system is A2780CP20. In words: 2D monolayer viability assay (CellTiter Blue). In kind it is cell-based. Particulars: Homo sapiens; 48 h, Mean ± SD, N=3. In general terms: Resazurin is reduced to fluorescent resorufin, in cell work by metabolically active cells.
A further assay relates to A2780. In words: 2D monolayer viability assay (CellTiter Blue). Particulars: Homo sapiens, A2780; 48 h, Mean ± SD, N=3; read-out: Monolayer (IC50 µM) A2780. In kind it is cell-based.
A further assay relates to HEYA8-MDR. As to the kind of experiment: 2D monolayer viability assay (CellTiter Blue). In kind it is cell-based. The conditions noted are these: Homo sapiens, 48 h, Mean ± SD, N=3.
The next assay deals with HEYA8. As to the kind of experiment: 2D monolayer viability assay (CellTiter Blue). The class given is cell-based. Particulars: Homo sapiens, HEY A8; 48 h, Mean ± SD, N=3.
The next assay deals with OVCAR4. As to the kind of experiment: 2D monolayer viability assay (CellTiter Blue). The class given is cell-based. The conditions noted are these: Homo sapiens, OVCAR-4; 48 h, Mean ± SD, N=3.
Another assay has as its system SKOV3IP1. In words: 2D monolayer viability assay (CellTiter Blue). The class given is cell-based. The conditions noted are these: Homo sapiens; 48 h, Mean ± SD, N=3.
The test system of another assay is SKOV3TRIP2. In words: 2D monolayer viability assay (CellTiter Blue). The class given is cell-based. Particulars: Homo sapiens; 48 h, Mean ± SD, N=3.
For another assay, the system named is SKOV3. In words: 2D monolayer viability assay (CellTiter Blue). Particulars: Homo sapiens, SK-OV-3; 48 h, Mean ± SD, N=3. The class given is cell-based.
The next assay deals with IMR90 fibroblasts. As to the kind of experiment: 2D monolayer viability assay (CellTiter Blue). In kind it is cell-based. The conditions noted are these: Homo sapiens, IMR-90; 48 h, N=3.
The next assay concerns OvCa cell lines. As to the kind of experiment: 2D monolayer viability assay, across the panel. In kind it is cell-based, human. The conditions noted are these: Homo sapiens, 48 h, read-out: no significant growth inhibition of any of the OvCa cell lines at concentrations as high as.
The test system of a further assay is HeyA8 spheroids. As to the kind of experiment: Spheroid viability and growth assay. In kind it is cell-based, human.
For a further assay, the system named is A2780 spheroids. In words: Spheroid viability assay (CellTiterGlo 3D). In kind it is cell-based. Particulars: Homo sapiens, 48 h, Mean ± SD, N=3.
The next assay deals with A2780CP20 spheroids. In words: Spheroid viability assay (CellTiterGlo 3D). Particulars: Homo sapiens; 48 h, Mean ± SD, N=3. The class given is cell-based.
In another assay the test system is COV362 spheroids. In words: Spheroid viability assay (CellTiterGlo 3D). In kind it is cell-based. The conditions noted are these: Homo sapiens, 48 h, Mean ± SD, N=3. In general terms: ATP-based viability assays read luminescence as a measure of living cells.
Another assay relates to HeyA8-MDR spheroids. In words: Spheroid viability assay (CellTiterGlo 3D). In kind it is cell-based. Particulars: Homo sapiens, 48 h, Mean ± SD, N=3.
For another assay, the system named is OVCAR4 spheroids. In words: Spheroid viability assay (CellTiterGlo 3D). The class given is cell-based. Particulars: Homo sapiens, OVCAR-4; 48 h, Mean ± SD, N=3.
The next assay has as its system SKOV3 spheroids. In words: Spheroid viability assay (CellTiterGlo 3D). In kind it is cell-based. The conditions noted are these: Homo sapiens, SK-OV-3; 48 h, Mean ± SD, N=3.
For another assay, the system named is SKOV3IP1 spheroids. In words: Spheroid viability assay (CellTiterGlo 3D). The conditions noted are these: Homo sapiens; 48 h, Mean ± SD, N=3. The class given is cell-based.
The next assay has as its system SKOV3TRIP2 spheroids. In words: Spheroid viability assay (CellTiterGlo 3D). The conditions noted are these: Homo sapiens; 48 h, Mean ± SD, N=3. The class given is cell-based.
Assay [1] has as its system normal human ovarian HI0-180 epithelial cells. As to the kind of experiment: Spheroid viability assay (CellTiterGlo 3D). The class given is cell-based. Particulars: Epithelial cell, 48 h.
The next assay concerns OvCa cell line spheroids. As to the kind of experiment: Spheroid viability assay, across the panel. The class given is cell-based. Particulars: Homo sapiens; 48 h exposure; read-out: no effects on spheroids in any cell lines at concentrations up to.
The test system of another assay is HeyA8 cells. In words: Scratch wound migration assay. In kind it is cell-based, human. Particulars: measured 14 h after scratch.
Assay [2] relates to RhoA activation in HeyA8 cells. In words: RhoA G-LISA activation assay. Particulars: HeyA8, 1 µM. In kind it is cell-based, human.
The target of assay [3] is T1, PTP4A3 protein (Homo sapiens, UniProt O75365). In words: Thermal shift assay with SYPRO orange. In kind it is binding. More on the design: made in house. Particulars: 100 µM compound, 16 μM protein.
T1 sequence (O75365 whole entry): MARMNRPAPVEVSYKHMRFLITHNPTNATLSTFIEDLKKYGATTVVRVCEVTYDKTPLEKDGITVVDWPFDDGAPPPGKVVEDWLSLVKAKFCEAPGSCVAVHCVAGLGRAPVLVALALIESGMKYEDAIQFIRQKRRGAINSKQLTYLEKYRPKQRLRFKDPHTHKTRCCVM
In assay [4] the target is T1, PTP4A3 protein. In words: PTP4A3 phosphatase activity assay with DiFMUP substrate. The class given is biochemical. Particulars: full-length recombinant human PTP4A3, DiFMUP substrate; read-out: PTP4A3 inhibition, inactive at concentrations as high as. The arrangement: using a full-length recombinant human PTP4A3 and DiFMUP as the substrate; His6; made in house.
A further assay has as its target PTP4A1 (Homo sapiens, UniProt Q93096). In words: PTP4A1 phosphatase activity assay with DiFMUP. The class given is biochemical. Particulars: DiFMUP substrate.
A further assay addresses PTPN7 (HePTP) (Homo sapiens, UniProt P35236). As to the kind of experiment: Phosphatase specificity profiling (PhosphataseProfiler). The class given is biochemical. Particulars: 10 µM DiFMUP, commercial vendor, N=2, read-out: % Activity (Mean ± SD) PTPN7 (HePTP).
A further assay deals with LMPTP-B (Homo sapiens, UniProt P24666). The assay is described as above. In kind it is biochemical. The conditions noted are these: 10 µM DiFMUP, commercial vendor, N=2, read-out: % Activity (Mean ± SD) LMPTP-B.
Chain of LMPTP-B (P24666 1-158 isoform P24666-2): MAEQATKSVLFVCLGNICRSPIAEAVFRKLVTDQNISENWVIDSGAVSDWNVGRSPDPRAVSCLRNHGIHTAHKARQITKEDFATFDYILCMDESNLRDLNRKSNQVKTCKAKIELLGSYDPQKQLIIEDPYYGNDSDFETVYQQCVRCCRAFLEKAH
The target in the next assay is PTPRB (PTPβ) (Homo sapiens, UniProt P23467). The assay is described as above. The conditions noted are these: 10 µM DiFMUP, commercial vendor, N=2, read-out: % Activity (Mean ± SD) PTPRB (PTPβ). The class given is biochemical.
Chain of PTPRB (PTPβ) (P23467 23-1997): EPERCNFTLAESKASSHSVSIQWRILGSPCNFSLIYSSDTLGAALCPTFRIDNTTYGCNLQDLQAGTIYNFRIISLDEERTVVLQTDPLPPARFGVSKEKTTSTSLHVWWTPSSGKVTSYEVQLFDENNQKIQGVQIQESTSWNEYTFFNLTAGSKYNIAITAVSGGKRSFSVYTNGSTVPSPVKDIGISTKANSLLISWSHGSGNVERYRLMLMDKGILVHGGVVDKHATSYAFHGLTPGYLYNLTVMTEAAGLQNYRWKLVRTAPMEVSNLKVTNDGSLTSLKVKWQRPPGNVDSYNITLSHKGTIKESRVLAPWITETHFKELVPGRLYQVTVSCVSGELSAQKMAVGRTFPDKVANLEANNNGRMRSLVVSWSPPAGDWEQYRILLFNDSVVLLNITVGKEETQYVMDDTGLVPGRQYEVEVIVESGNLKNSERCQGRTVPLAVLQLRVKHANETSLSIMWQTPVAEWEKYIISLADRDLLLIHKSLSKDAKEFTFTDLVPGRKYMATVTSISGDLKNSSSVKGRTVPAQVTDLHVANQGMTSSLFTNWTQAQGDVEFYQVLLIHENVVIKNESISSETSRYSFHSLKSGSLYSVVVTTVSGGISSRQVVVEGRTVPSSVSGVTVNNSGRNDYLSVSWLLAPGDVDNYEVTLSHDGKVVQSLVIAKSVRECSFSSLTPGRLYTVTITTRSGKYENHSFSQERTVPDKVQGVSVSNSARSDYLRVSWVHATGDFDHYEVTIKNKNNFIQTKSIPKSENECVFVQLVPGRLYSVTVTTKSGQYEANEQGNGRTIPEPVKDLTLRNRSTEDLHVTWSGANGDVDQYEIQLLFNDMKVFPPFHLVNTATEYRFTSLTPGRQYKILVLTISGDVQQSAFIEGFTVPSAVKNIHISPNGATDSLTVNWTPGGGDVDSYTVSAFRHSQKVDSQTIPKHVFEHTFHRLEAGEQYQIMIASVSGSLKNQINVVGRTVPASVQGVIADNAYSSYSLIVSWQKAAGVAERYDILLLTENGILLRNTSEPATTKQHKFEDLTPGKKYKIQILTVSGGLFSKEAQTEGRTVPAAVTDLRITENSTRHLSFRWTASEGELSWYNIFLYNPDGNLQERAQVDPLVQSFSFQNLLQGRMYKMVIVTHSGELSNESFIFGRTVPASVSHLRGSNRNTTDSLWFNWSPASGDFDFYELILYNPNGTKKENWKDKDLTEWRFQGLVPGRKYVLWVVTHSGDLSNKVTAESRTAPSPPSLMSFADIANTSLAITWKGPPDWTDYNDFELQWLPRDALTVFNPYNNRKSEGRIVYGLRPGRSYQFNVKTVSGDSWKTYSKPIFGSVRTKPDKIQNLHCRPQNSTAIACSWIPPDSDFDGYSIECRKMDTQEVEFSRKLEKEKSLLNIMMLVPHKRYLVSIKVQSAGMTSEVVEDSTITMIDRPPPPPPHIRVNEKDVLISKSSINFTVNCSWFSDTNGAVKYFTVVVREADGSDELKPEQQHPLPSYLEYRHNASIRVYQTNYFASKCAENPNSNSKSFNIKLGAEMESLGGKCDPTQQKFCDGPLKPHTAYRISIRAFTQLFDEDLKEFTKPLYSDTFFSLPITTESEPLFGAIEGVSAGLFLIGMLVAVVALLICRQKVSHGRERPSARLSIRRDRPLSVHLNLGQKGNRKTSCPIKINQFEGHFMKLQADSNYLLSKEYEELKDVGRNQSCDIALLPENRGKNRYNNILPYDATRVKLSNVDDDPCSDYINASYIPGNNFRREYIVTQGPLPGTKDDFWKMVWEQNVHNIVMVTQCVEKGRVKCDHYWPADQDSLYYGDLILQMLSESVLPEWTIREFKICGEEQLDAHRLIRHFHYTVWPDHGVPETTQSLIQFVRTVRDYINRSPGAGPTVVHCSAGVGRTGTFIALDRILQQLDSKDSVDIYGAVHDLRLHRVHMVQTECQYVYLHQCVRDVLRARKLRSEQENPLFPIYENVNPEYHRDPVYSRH
For the next assay, the target named is DUSP13 (TMDP) (Homo sapiens, UniProt Q9UII6). The assay is described as above. In kind it is biochemical. The conditions noted are these: 10 µM DiFMUP, commercial vendor, N=2, read-out: % Activity (Mean ± SD) DUSP13 (TMDP).
Chain of DUSP13 (TMDP) (Q9UII6 whole entry): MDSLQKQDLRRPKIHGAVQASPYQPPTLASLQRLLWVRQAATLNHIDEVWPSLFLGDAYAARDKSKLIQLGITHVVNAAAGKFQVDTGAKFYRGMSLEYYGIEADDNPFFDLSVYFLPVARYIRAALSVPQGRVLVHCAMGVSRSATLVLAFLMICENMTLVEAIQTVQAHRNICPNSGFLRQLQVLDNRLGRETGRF
The target of another assay is T2, Lambda PP (Phage) (Escherichia phage lambda, UniProt P03772).
T2 construct: purchased Eurofins (Dundee, Scotland, UK), PhosphataseProfiler
T2 sequence (P03772 whole entry): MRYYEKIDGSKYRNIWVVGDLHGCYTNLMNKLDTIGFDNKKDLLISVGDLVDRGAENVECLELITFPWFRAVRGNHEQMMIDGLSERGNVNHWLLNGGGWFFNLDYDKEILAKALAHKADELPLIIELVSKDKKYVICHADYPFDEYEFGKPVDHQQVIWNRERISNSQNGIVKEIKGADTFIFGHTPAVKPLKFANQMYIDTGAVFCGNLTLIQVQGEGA
The assay is described as above. In kind it is biochemical. The conditions noted are these: 10 µM DiFMUP, commercial vendor, N=2, read-out: % Activity (Mean ± SD) Lambda PP (Phage).

The target in a further assay is T3, p38α (Homo sapiens, UniProt Q16539).
T3 construct: purchased Luceome Biotechnologies (Tucson, AZ), KinaseSeeker
T3 sequence (Q16539 whole entry): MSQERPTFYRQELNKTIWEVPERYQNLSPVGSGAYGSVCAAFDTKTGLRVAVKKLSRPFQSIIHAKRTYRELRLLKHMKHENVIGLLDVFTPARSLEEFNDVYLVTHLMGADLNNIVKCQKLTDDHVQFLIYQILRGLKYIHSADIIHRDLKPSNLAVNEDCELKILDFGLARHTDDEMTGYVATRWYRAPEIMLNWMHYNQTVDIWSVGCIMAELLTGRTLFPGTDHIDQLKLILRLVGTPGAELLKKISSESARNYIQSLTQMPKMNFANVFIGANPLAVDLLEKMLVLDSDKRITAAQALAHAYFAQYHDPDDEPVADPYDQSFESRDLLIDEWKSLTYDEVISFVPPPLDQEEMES
In words: Kinase profiling (KinaseSeeker). In kind it is biochemical. Particulars: 1 µM screening concentration.

The test system of assay [5] is primary human lung microvascular endothelial cells (MVEC). In words: Endothelial barrier function (TEER, ECIS) after VEGF challenge. In kind it is cell-based. Particulars: 5 µM.
Assay [6] has the same test system. In words: Endothelial barrier function (TEER, ECIS) after LPS challenge. The class given is cell-based.
Assay [7] has as its system RhoA activation in human MVEC. In words: RhoA activation pull-down assay in MVEC after LPS. In kind it is cell-based. Particulars: 5 µM pretreatment 24 h, LPS 0.5 EU/mL 1 h.
For assay [8], the system named is Rac1 activation in human MVEC. As to the kind of experiment: Rac1 activation assay in MVEC after LPS. In kind it is cell-based. The conditions noted are these: 5 µM pretreatment 24 h, LPS 0.5 EU/mL 1 h.

Chain of PTP4A1 (Q93096 whole entry): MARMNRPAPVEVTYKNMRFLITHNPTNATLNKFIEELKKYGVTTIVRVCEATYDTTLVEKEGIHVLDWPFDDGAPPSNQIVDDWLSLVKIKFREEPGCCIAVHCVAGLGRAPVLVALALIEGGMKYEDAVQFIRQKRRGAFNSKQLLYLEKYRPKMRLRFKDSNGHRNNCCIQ
Chain of PTPN7 (HePTP) (P35236 whole entry): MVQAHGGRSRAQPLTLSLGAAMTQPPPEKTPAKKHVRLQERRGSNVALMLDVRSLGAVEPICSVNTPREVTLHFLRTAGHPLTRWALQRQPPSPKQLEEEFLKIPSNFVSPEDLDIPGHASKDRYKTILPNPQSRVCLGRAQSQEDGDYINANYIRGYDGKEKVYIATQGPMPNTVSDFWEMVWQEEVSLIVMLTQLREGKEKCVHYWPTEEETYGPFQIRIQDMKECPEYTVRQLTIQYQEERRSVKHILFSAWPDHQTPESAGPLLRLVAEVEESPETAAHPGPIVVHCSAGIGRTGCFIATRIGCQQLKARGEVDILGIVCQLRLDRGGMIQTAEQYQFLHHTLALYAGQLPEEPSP

In the case of `Nc1c[nH]c(=O)c2cc(-c3ccccc3)sc12` [thienopyridone, reference compound], the IC50 with A2780CP20 is 13.1 ± 6 µM; with A2780, 4.5 ± 0.6 µM; in the assay with HEYA8-MDR it was > 50 µM; with HEYA8 it was 47 ± 4.9 µM; in the assay with OVCAR4, 15.5 ± 2.4 µM; in the assay on SKOV3IP1 it was 31.3 ± 8.5 µM. The IC50 in the assay with SKOV3TRIP2 is > 50 µM; in the assay with SKOV3, 28.8 ± 2.2 µM.
On to `O=c1[nH]c(=O)c2cc(-c3ccccc3)sc2[nH]1` [JMS-038], for which the IC50 with A2780CP20, with A2780, in the assay on HEYA8-MDR, with HEYA8, in the assay on IMR90 fibroblasts and with OVCAR4 was > 50 µM in each case. Further, the IC50 in the assay on SKOV3IP1 was > 50 µM; in the assay with SKOV3TRIP2 it was > 50 µM; with SKOV3, > 50 µM; in the assay on OvCa cell lines it was > 50 µM; with HeyA8 spheroids (Homo sapiens, HEY A8, 48 h, Mean ± SD, N=3), > 50 µM; with A2780 spheroids it was > 50 µM. For the same molecule, the IC50 in the assay on A2780CP20 spheroids, in the assay with COV362 spheroids, in the assay on HeyA8-MDR spheroids, with OVCAR4 spheroids, in the assay with SKOV3 spheroids and with SKOV3IP1 spheroids was > 50 µM throughout. In addition, the IC50 with SKOV3TRIP2 spheroids is > 50 µM; in assay [1], > 25 µM; in the assay with OvCa cell line spheroids, > 50 µM; at PTP4A3 protein [4], > 100 µM. In addition, the “HeyA8 cell spheroid growth (images)” value in the assay on HeyA8 spheroids (images 48 h after plating and 24 h after compound addition) was “but not JMS-038 inhibited HeyA8 cell spheroid growth”. For the same molecule, in the assay on HeyA8 cells, the “migration of HeyA8 cells after wounding” value is “but not JMS-038 blocked the migration”. In assay [2], the “effect on RhoA activation compared to DMSO vehicle control” value is given as “no significant effect”. Further, at PTP4A3 protein [3], the “∆Tm of PTP4A3 (destabilizing thermal shift)” value is given as “no significant thermal shift; also recorded: no effect”.
Turning to `N=C1C(=O)NC(=O)c2cc(-c3ccccc3)sc21` [JMS-053], the activity at 1 µM at PTP4A1 (1 µM, in-house assay, N=2, read-out: % Activity (Mean ± SD) PTP4A1) is 1%; at PTPN7 (HePTP), 97 ± 3%; at LMPTP-B, 99%; on PTPRB (PTPβ), 95 ± 5%; at DUSP13 (TMDP), 95 ± 1%; on Lambda PP (Phage), 72 ± 3%. Also, the IC50 on PTP4A1 stood at 0.05 ± 0.014 µM. For the same molecule, the “inhibition of p38α” value against p38α is recorded as ~50%. In addition, the “TEER after VEGF, pretreatment” value in assay [5] (2 h before VEGF 100 ng/mL then continuous exposure) is “normalized”. For the same molecule, the “TEER after VEGF, post-treatment” value in assay [5] (3 h after VEGF 100 ng/mL) is “normalized endothelial barrier function”. Also, the “TEER after LPS, pretreatment” value in [6] (5 µM, 24 h prior to LPS 0.5 EU/mL) is “prevented LPS-induced disruption of the endothelial barrier function”. Further, the “TEER after LPS, post-treatment” value in [6] (treatment 3 h after LPS exposure) is listed as “no observed mitigation”. Moreover, the “LPS-mediated RhoA activation” value in assay [7] was “blocked”. In addition, the “LPS-mediated reduction in Rac1 activation” value in [8] is recorded as “blocked”.
